Source: patent publication US20210060550A1, “DEVICES AND METHODS FOR DETECTION OF MICROORGANISMS” (MICROBIOSENSOR LIMITED, priority 2017, published 2021)

Key:
K. pneumoniae = experiment: Test D: antibiotic sensitivity in contaminated urine, tetrazolium violet colour change; format: cell-based; details: urine with 10^5 cfu/mL K. pneumoniae, 37° C. 10 hours; μg/ml: nitrofurantoin 64, pivmecillinam 4, trimethoprim 8, cephalexin 32, ciprofloxacin 0.25
Description: Each test tube contained 0.04 mg tetrazolium violet, 6.6 mg Wilkins Chalgren media. The test chambers also contained an amount of antibiotic compound as indicated in the tables below (as concentration in final volume of urine).
For each example, 0.2 mL of a urine sample was contaminated with 10^5 cfu/mL of the specified bacteria was poured into each test tube. The resultant composition was incubated at 37° C. for 10 hours. FIGS. 3A to 3F show the test tubes after the incubation period.

P. aeruginosa = experiment: Test A: antibiotic sensitivity in contaminated urine, tetrazolium violet colour change; format: cell-based; details: urine with 10^5 cfu/mL P. aeruginosa, 37° C. 10 hours; μg/ml: nitrofurantoin 64, pivmecillinam 4, trimethoprim 1, cephalexin 16, ciprofloxacin 0.25

Compound	infection treatable or resistant (FIG. 4D) (K. pneumoniae)	infection treatable or resistant (FIG. 4A) (P. aeruginosa)
COc1cc(Cc2cnc(N)nc2N)cc(OC)c1OC [trimethoprim]	can be treated	–
O=C(O)c1cn(C2CC2)c2cc(N3CCNCC3)c(F)cc2c1=O [ciprofloxacin]	can be treated	can be treated
